A compilation of properties of binary mixtures (doi:10.1021/je300093r)

Assay: xn = mol fraction of the nth substance listed
Details: 101 kPa

CCCC[n+]1ccccc1.O=S(=O)([N-]S(=O)(=O)C(F)(F)F)C(F)(F)F + CCCC[n+]1ccccc1.F[B-](F)(F)F
viscosity [mPa·s]
Details	303.15 K	313.15 K	323.15 K	333.15 K	343.15 K	353.15 K
x1 = 0.0442	115.3	70.5	46.1	31.9	22.9	17.1
x1 = 0.1119	105	66.2	43.8	30.4	–	–
x1 = 0.2162	–	57.6	38.6	27.3	–	15.2
x1 = 0.3217	82.6	53.1	35.7	25.5	18.7	14.4
x1 = 0.4327	75.7	–	33.3	23.8	17.6	–
x1 = 0.5429	70.2	–	31.8	23.1	17.3	–
x1 = 0.6523	63.1	–	29.8	–	16.4	12.8
x1 = 0.7643	–	39.1	27.7	20.5	15.5	12.1
x1 = 0.8822	54.1	–	25.8	19.2	–	11.5
x1 = 0.9467	52	35	25	18.5	14.1	11.1
x1 = 1	49.4	33.8	–	17.9	13.7	–

CCCC[n+]1ccccc1.F[B-](F)(F)F + CCCC[n+]1ccccc1.O=S(=O)([N-]S(=O)(=O)C(F)(F)F)C(F)(F)F
x2 = 0
Details	viscosity [mPa·s]
313.15 K	74.8
323.15 K	48.1
333.15 K	33
343.15 K	23.8
